Laboratory results as given in patent US20190315775A1, “MODIFIED […] AND PHARMACEUTICAL COMPOSITION HAVING SAME AS ACTIVE INGREDIENT” (KEIO UNIVERSITY, priority 2016, published 2019).

Key:
[1] = tested on: HeLa (human cervical cancer cells); test: WST-1 proliferation assay (Example 10), HeLa; assay type: cell-based; conditions: WST-1, 48 hours
Description: (§1) Cancer cells used herein were KMS34 (human myeloma cells), HeLa (human cervical cancer cells), HCT116 (human colon cancer cells; p53+/+), KATOIII (human stomach cancer cells), MDA-MB-231 (human breast cancer cells), HT-29 (human colon adenocarcinoma cells), PANC-1 (human pancreatic cancer cells), and Li-7 (human liver cancer cells). Proliferation assay of various cancer cells was performed by the WST-1 method (Cook, J A. & Mitchell, J B., Anal. Biochem., 179, 1-7, 1984) as follows. One μ1 each of PEG11(E)-TC11 and PEG11(O)-TC11 prepared in advance at target concentrations was added into each well of a 96-well microplate. Medium was added to the wells at 50 μl per well, and then mixed by tapping lightly the plate. Subsequently, KMS34 was prepared at a concentration of 5×10^5 cells/ml, and cells other than KMS34 were prepared at a concentration of 2×10^5 cells/ml. Cells were seeded at 50 μl per well (2.5×10^4 cells, 1×10^4 cells), and then incubated in a CO2 incubator (37° C., 5% CO2) for 48 hours. […] Subsequently, the plate was shaken with a plate reader for 1 minute, and then absorbance was measured at 450 nm. At this time, absorbance was also measured at 595 nm as a reference wavelength. The net absorbance was obtained by subtracting the absorbance at the reference wavelength from the absorbance at 450 nm.

[2] = tested on: HCT116 (human colon cancer cells; p53+/+); test: WST-1 proliferation assay (Example 10), HCT116; assay type: cell-based; conditions: HCT-116, WST-1, 48 hours
Description: as §1

[3] = tested on: KATOIII (human stomach cancer cells); test: WST-1 proliferation assay (Example 10), KATOIII; assay type: cell-based; conditions: KATO III, WST-1, 48 hours
Description: as §1

[4] = tested on: PANC-1 (human pancreatic cancer cells); test: WST-1 proliferation assay (Example 10), PANC-1; assay type: cell-based; conditions: WST-1, 48 hours
Description: as §1

[5] = tested on: Li-7 (human liver cancer cells); test: WST-1 proliferation assay (Example 10), Li-7; assay type: cell-based; conditions: U-7 (head of Table 4), WST-1, 48 hours
Description: as §1

[6] = tested on: high-risk MM cells (KMS34); test: WST-1 proliferation assay (Example 11), KMS34; assay type: cell-based, human; conditions: WST-1, 48 hours, FIG. 6
Description: (§2) Proliferation assay of cancer cells and normal cells was performed using WST-1 as follows. One μ1 each of PEG11(E)-TC11 and TC11 prepared at target concentrations was added to each well of a 96-well microplate. Medium was added to the wells at 50 μl per well, and then mixed by tapping lightly the plate. Next, high-risk MM cells (KMS34) prepared at 5×10^5 cells/ml and bone marrow stromal cell-derived normal cells (WT) prepared at 2×10^5 cells/ml were seeded at 50 μl (2.5×10^4 cells and 1×10^4 cells, respectively) per well, and then incubated in a CO2 incubator (37° C., 5% CO2) for 48 hours. Ten (10) μ1 each of cell proliferation reagent WST-1 (Roche) was added to each well after incubation, and then the resultants were mixed by lightly tapping the plate, followed by 1 hour of reaction in the CO2 incubator. Subsequently, the plate was shaken with a plate reader for 1 minute, and then absorbance was measured at 450 nm. At this time, absorbance was also measured at 595 nm as a reference wavelength. The net absorbance was obtained by subtracting the absorbance at the reference wavelength from the absorbance at 450 nm.

[7] = tested on: bone marrow stromal cell-derived normal cells (WT); test: WST-1 proliferation assay (Example 11), normal cells; assay type: cell-based; conditions: WST-1, 48 hours, FIG. 6
Description: as §2

[8] = tested on: high-risk MM cells (MUM24); test: Apoptosis induction, Annexin V/PI flow cytometry; assay type: cell-based, human; conditions: MUM24, 10 μM, 24, 48 and 72 hours
Description: For observation of apoptosis induction caused by drugs, TC11 and PEG11(E)-TC11, one type of MM cells, MUM24 cells were treated with TC11 and PEG11(E)-TC11, Annexin V/PI staining was performed, and then analysis was conducted using a flow cytometer. More specifically, MUM24 was adjusted at 2.0×10^5 cells/mL, and then 1.95 mL each thereof was seeded to a 6-well plate. From the next day, TC11 and PEG11(E)-TC11 were added in such a manner that the final concentrations were 0, and 10 μM, and then cells were cultured at 37° C. for 24, 48, and 72 hours. Each cell (1.5 ml each) was collected, and then washed twice with Phosphate Buffered Saline (PBS, Sigma-Aldrich). Subsequently, each resultant was suspended again in a solution prepared by adding 5 μL of Annexin V-FITC and 5 μL of Propidium Iodide (PI) to 500 μL of 1×Binding Buffer in Annexin V-FITC Apoptosis Detection Kit (Bio Vision, California, USA), and then left to stand in the dark for 5 minutes. Fluorescence intensity was measured using BD™ LSR II Flow Cytometer (Becton, Dickinson and company, New Jersey, USA). Wavelengths to be measured were excitation wavelength of 488 nm, and fluorescence wavelengths of 530±15 nm for Annexin V-FITC and 610±10 nm for PI.

MUM24 cells = test: Cell cycle, DNA content by flow cytometry; assay type: cell-based, human; conditions: MUM24, 3 μM, 12, 24 and 36 hours
Description: The present inventors have reported that when HeLa cells of a human cervical cancer-derived cell line are treated with TC11, multipolarization and then multinucleation take place (Shiheido, H. et al., PLoS One, 7: e38878, 2012). The present inventors have also reported in the same paper α-tubulin and NPM1 as binding molecules for TC11. Next, intracellular DNA content was measured using flow cytometry in order to examine the effects of TC11 and its derivative, PEG11(E)-TC11 on cell cycle. More specifically, MUM24 was adjusted at 4.0×10^5 cells/mL, 1.95 mL each of MUM24 was seeded to a 6-well plate. From the next day, TC11 and PEG11(E)-TC11 were added in such a manner that the final concentrations were 0 and 3 μM, respectively, and then cells were cultured at 37° C. for 12, 24, and 36 hours. Each cell was collected, and then washed with PBS. 70% EtOH ([…]) was added and then the resultant was left to stand overnight at −30° C. After washing with PBS, […] of citrate-phosphate buffer was added, and then the resultant was left to stand at room temperature for 30 minutes, thereby eluting fragmented DNA. […] Fluorescence intensity was measured using BD FACS Calibur (Trademark) (Becton, Dickinson and company, New Jersey, USA). Wavelengths for measurement were an excitation wavelength of 488 nm, and a fluorescence wavelength of 610±10 nm.

IC50 [1] [µM] | IC50 [2] [µM] | IC50 [3] [µM] | IC50 [4] [µM] | IC50 [5] [µM] | Compound | Proliferation inhibitory activity against high-risk MM cells (KMS34) [6] | Proliferation inhibitory activity against bone marrow stromal cell-derived normal cells (WT) [7] | Apoptosis induction (Annexin V+/PI− and Annexin V+/PI+ fractions) [8] | Effect on cell cycle (proportion of tetraploid cells) (MUM24 cells)
5.4 | 9 | 7.9 | 14 | 9.4 | COCCOCCOCCOCCOCCOCCOCCOCCOCCOCCOCCOCCC(=O)OCCOc1cc2c(cc1N)C(=O)N(c1c(C(C)C)cccc1C(C)C)C2=O [PEG11(E)-TC11] | significant proliferation inhibitory activity | no proliferation inhibitory activity | clearly induce apoptosis | induce cell death by causing G2/M phase arrest
18.1 | 34.5 | 21 | 75 | 87 | COCCOCCOCCOCCOCCOCCOCCOCCOCCOCCOCCOCCOc1cc2c(cc1N)C(=O)N(c1c(C(C)C)cccc1C(C)C)C2=O [PEG11(O)-TC11] |  |  |  | 
 |  |  |  |  | CC(C)c1cccc(C(C)C)c1N1C(=O)c2ccc(N)cc2C1=O [TC11, 2-(2,6-di-isopropylphenyl)-5-amino-1H-isoindole-1,3-dione, reference compound] | significant proliferation inhibitory activity | no proliferation inhibitory activity | clearly induce apoptosis | induce cell death by causing G2/M phase arrest
